One substance from patent publication US20100254928A1, “NOVEL COMPOSITION CONTAINING OZONIZED SURFACTANT” (priority 2007, published 2010) can be followed below.

Series [1] has as its system Staphylococcus aureus. As to the kind of experiment: Minimum bactericidal concentration test. In kind it is cell-based. Conditions: 24 h, 37° C. The method, then:
(§1) Here, the ozonized surfactant was diluted 100-fold, and therefore the ozonized surfactant was considered to be ineffective. […] [table]

Series [2] concerns Escherichia coli. As to the kind of experiment: Minimum bactericidal concentration test. Particulars: 24 h, 30° C. The class given is cell-based. As for the experimental part:
as §1

In series [3] the test system is Cladosporium cladosporioides. As to the kind of experiment: Minimum bactericidal concentration test. In kind it is cell-based. Conditions: 96 h, 25° C. As for the experimental part: as §1
Series [4] concerns Trichophyton mentagrophytes. As to the kind of experiment: Minimum bactericidal concentration test. In kind it is cell-based. Conditions: 96 h, 25° C. As for the experimental part:
as §1

Series [5] relates to Saccharomyces cerevisiae. As to the kind of experiment: Minimum bactericidal concentration test. The class given is cell-based. Particulars: 48 h, 28° C. The method, then:
as §1

Series [6] relates to mold (filamentous fungus). As to the kind of experiment: Evaluation of antiseptic activity in thickener solution. The class given is cell-based. Particulars: 0.1% in 3.5% Carbopol ETD2020 aqueous solution, 25° C. As for the experimental part:
In order to check the antiseptic performance of ozonized surfactants, the ozonized surfactants were added to a substance susceptible to mold. […] Into a 100 mL-glass bottle, 50 mL of the sample was charged. The bottles were kept at 25° C. in a thermostatic air chamber, and temporal changes were visually observed. […] The mold-like material was removed and examined under a 700-power microscope. As a result, spores were detected and the material was identified as a filamentous fungus. The above results confirmed the antiseptic activity of the ozonized surfactants.

Series [7] is described as follows: Temporal change in oxidizing property (iodine titration method). In kind it is physicochemical. Conditions: 1% aqueous solution, 25° C., 700 days. The source says: After deaerating the obtained aqueous ozonized surfactant solution to remove dissolved ozone gas by helium purging, the oxidizing property of the aqueous ozonized surfactant solution can be determined by the iodine titration method (see Non Patent Literature 1). Whether or not the aqueous ozonized surfactant solution maintains a function as a surfactant can be evaluated by checking whether or not frothing, which is a characteristic of surfactants, occurs when the solution is agitated or vibrated.
Meanwhile, oxygen was supplied from an oxygen cylinder into an ozonizer (ozonizer GR-RB made by Sumitomo Precision Products Co., Ltd.) at an oxygen flow rate of 0.3 L/min to ozonize the oxygen to produce ozone gas. Then, the ozone gas was dissolved in the above-described aqueous solution in a dissolving module (SEK model made by ERC Technology), and the aqueous solution was circulated at a flow rate of 1 L/min. […] Further, in 30 minutes, the concentration increased to 25 ppm (see FIG. 2). After deaerating the aqueous solution that had undergone about 30-minute ozone treatment to remove dissolved ozone gas by helium purging, oxidizing property of the aqueous solution was determined by the iodine titration method. As a result, the aqueous solution had oxidizing property, and frothing, which is a characteristic of surfactants, was observed. The results confirmed that ozonized Tween 80 had been produced. Further, a temporal change in the oxidizing property of the aqueous solution was determined by the iodine titration method at 25° C. for 20 days. As a result, the percentage of oxidizing property measured after 20 days to that measured just after preparation was 109%.
The solution A was diluted to a 1% aqueous solution, and a temporal change in the oxidizing property of the aqueous solution was determined by the iodine titration method at 25° C. for 700 days. As a result, the percentage of oxidizing property measured after 700 days to that measured just after preparation was 101%.

The test system of series [8] is Staphylococcus aureus. As to the kind of experiment: Minimum inhibitory concentration test. In kind it is cell-based. Conditions: 24 h, 37° C., 1 × 10^7/mL. The source says:
(§2) In order to check the antimicrobial and antifungal performance of the ozonized surfactant, bacteriostatic and bactericidal effects of the ozonized surfactant against five kinds of microorganisms were examined. The five kinds of target microorganisms were Staphylococcus aureus as a prokaryotic gram-positive bacterium, Escherichia coli as a prokaryotic gram-negative bacterium, Saccharomyces cerevisiae and Trichophyton mentagrophytes as fungi which are eukaryotic microorganisms, and Cladosporium cladosporioides. One loopful of each strain was inoculated in a medium optimum for the strain, and cultured under culture conditions optimum for the strain to prepare a cell suspension for inoculation.
(§3) The solution A obtained in Example 4 was placed in test tubes, and was then diluted with sterilized water 2-, 4-, 8-, 16-, 32-, 64-, 128-, 256-, and 512-fold to prepare 10 levels of diluted ozonized surfactant solutions. Into L-shaped test tubes for a biophotorecorder, 9 mL of each medium shown in Table 1 was dispensed and sterilized by steam. Then, 1 mL of each of the 10 levels of diluted ozonized surfactant solutions was added aseptically to the L-shaped test tubes to prepare 10 mL of 10-, 20-, 40-, 80-, 160-, 320-, 640-, 1280-, 2560-, and 5120-fold diluted solutions of the solution A (hereinafter, referred to as a “graduated dilution series to be tested”). Into the graduated dilution series to be tested, 0.1 mL of the cell suspension for inoculation was inoculated (the initial number of cells of each microorganism is shown in Table 1). The L-shaped test tubes into which the cell suspension had been inoculated were set in a biophotorecorder (made by Advantec Toyo Kaisha, Ltd.) and subjected to shaking culture (30 rpm) under conditions shown in Table 1. The test tubes to be used were sterilized by dry heat (165° C. for 1 hour), and the media, sterilized water, and tools were sterilized by steam in an autoclave (121° C. for 15 minutes). In the following tests, they were sterilized in the same manner.
(§4) Another graduated dilution series was prepared between the temporary minimum inhibitory concentration and the concentration of the ozonized surfactant nearest to the temporary minimum inhibitory concentration, at which turbidity occurred. Then, the same operation as described above was again carried out. […] This MIC test against these five kinds of microorganisms was carried out also using, as a control, the surfactant solution before ozone treatment.

Series [9] concerns Escherichia coli. As to the kind of experiment: Minimum inhibitory concentration test. Particulars: 24 h, 30° C., 1 × 10^7/mL. The class given is cell-based.
Text: as §2, §3, §4

Series [10] deals with Cladosporium cladosporioides. As to the kind of experiment: Minimum inhibitory concentration test. In kind it is cell-based. Particulars: 96 h, 25° C., 1 × 10^5/mL.
Text: as §2, §3, §4

Series [11] has as its system Trichophyton mentagrophytes. As to the kind of experiment: Minimum inhibitory concentration test. The class given is cell-based. Particulars: 96 h, 25° C., 1 × 10^5/mL.
Text: as §2, §3, §4

The subject of series [12] is Saccharomyces cerevisiae. As to the kind of experiment: Minimum inhibitory concentration test. The class given is cell-based. Particulars: 48 h, 28° C., 1 × 10^6/mL.
Text: as §2, §3, §4

In the case of “Ozonized POE (10 EO) oleyl ether [Example 4]”, the Minimum bactericidal concentration in the series with Staphylococcus aureus [1] was determined as 0.11%; in the series on Escherichia coli [2] it was 0.30%; in series [3], 0.18%; in series [4] it was 0.03%; in the series on Saccharomyces cerevisiae [5], 0.03%. The “Antiseptic activity of thickener soln. (visually observed), 1 month after” value in series [6] was “Good”. In series [6], the “Antiseptic activity of thickener soln. (visually observed), 1 week after” value was “Good”. Moreover, the “percentage of oxidizing property measured after 700 days to that measured just after preparation” value in series [7] stood at 101%. Besides, the Minimum inhibitory concentration in the series on Staphylococcus aureus [8] came out at 0.11%; in the series with Escherichia coli [9], 0.25%; in [10], 0.09%; in [11], 0.03%; in the series on Saccharomyces cerevisiae [12], 0.02%.
